From patent US8648116B2, “Derivatives of N-(arylamino) sulfonamides including polymorphs as inhibitors of MEK as well as compositions, methods of use and methods for preparing the same” (Ardea Biosciences, Inc., priority 2005, dated 2014)
“And” between values parts separate entries of the source, which are not always exact repeats. Identical values can stand only once. Like-named read-outs stand apart in the source and are kept apart here.

What was measured:
[1] = system: orthotopic HT-29 human colorectal adenocarcinoma; test: Growth response of orthotopic HT-29 colon tumors in nude mice; type: in vivo, BALB/c nu/nu mice; details: for Caecum Weight / Tumour Weight: individual animals; for Average Caecum Weight / Average Tumour Weight: mice surviving to final day
Procedure: Female BALB/c nu/nu mice (University of Adelaide, Waite Campus, SA, Australia), aged 7-12 weeks, with a body weight range: of 16.58-25.39 g (mean 21.52 g) were used for the study. The mice were divided into 6 Study groups (4 treatment groups and 2 control groups) as follows: • Number of Mice per Group: 10 in Groups 1 to 5 inclusive • 9 in ‘Take-Rate’ Control Group (Group 6)
HT-29 human colorectal adenocarcinoma cells (Passage 4 from working stock VP-Stock 325) were cultured in RPMI1640 cell culture medium, which was supplemented with 10% FBS and penicillin-streptomycin (501 U/mL final concentration). The cells were harvested by trypsinisation, washed twice in HBSS and counted. The cells were then resuspended in HESS and adjusted to a final volume containing 2×10^8 cells/mL. Prior to inoculation, the incision site was liberally swabbed with alcohol and an incision made through the abdominal wall to expose the caecum wall. The needle was introduced through the surface of the caecum wall where 5 μL of cells (1×10^6 cells) were discharged.
A stock solution was prepared weekly and stored at 4° C. Dosing solutions were prepared on each day of administration.
Caecum and tumor wet weight were measured when each were excised post-mortem on the termination day of the study. At the termination of the study, the caecum was excised from all mice in each study group and weighed with the tumors intact. The tumors were then excised from the caecum and weighed.
A two-sample t-test was used to determine the significance in body weight change within a treatment group between Day 0 and the termination day of the study. […] In these groups, a two-sample t-test was used to determine the significance in body weight change within a treatment group between Day 0 and the final treatment day of the study, and between the last treatment day and the termination day of the study.
A One-Way Analysis of Variance (ANOVA) (All Pairwise Multiple Comparison Procedure and Multiple Comparison versus Control Group) was performed on the caecum weight and tumor weight data at the end of the study.

[2] = system: A431 epidermoid cells; test: Anchorage-dependent growth inhibition (CellTiterGlo/ATP, 48 hr)
Procedure: (§2) Cells were maintained at 37° C., 5% CO2, and 100% humidity. Colo205 cells were maintained in RPMI supplemented with 10% fetal bovine serum, glutamine (2 mM), penicillin (100 U/ml), and streptomycin (100 μg/ml). For growth inhibition experiments, cells were plated in white 384-well microplates at 1000 cells/20 dwell. After 24 hr, 5 μl of a 5× drug stock solution was added. All drugs were initially prepared as 200× stocks in DMSO, such that final DMSO concentration was 0.5%. Cells were incubated for 48 hr at 37° C. and ATP levels were determined using CellTiterGlo (Promega, Madison, Wis.). […] Non-linear curve-fitting was performed using GraphPad Prism 4 (GraphPad Software, San Diego, Calif.).

[3] = system: human hepatocytes; test: Primary hepatocyte toxicity (AK release, ATP, 48 hr); type: cell-based
Procedure: Plated human hepatocytes were obtained from CellzDirect and processed according to manufacturer's instructions.
(§1) After 48 hr, supernatant AK levels were determined using Toxilight, and cellular ATP levels were determined using CellTiterGlo. Full kill values were determined using 15 μM VRX-14686.

[4] = system: Colo205 colon cancer cells; test: Anchorage-dependent growth inhibition (CellTiterGlo/ATP, 48 hr)
Procedure: as §2

[5] = Plasma concentrations in mice (Example 94F); type: in vivo, nu/nu mice; details: for Cmin / Cmin Free Fraction / AUC / Cmax: A375-bearing nu/nu mice; for AUC / Cmax: female, nu/nu, mouse, plasma, po
[6] = system: Colo205 cells; test: Anchorage-independent growth inhibition (MTS, 7 days); type: cell-based, human
Procedure: Wells of an “ultra low binding” plate (Corning, Acton Mass.) were filled with 60 μl of a 0.15% agarose solution in complete RPMI. Then, 60 μl complete RPMI containing 9000 Colo205 cells in 0.15% agarose was added per well. After 24 hr, 60 μl of a 3× drug solution in agarose free complete RPMI was added. After 7 days, 36 μl 6×MTS reagent (CellTiter 96 Aqueous, Promega, Madison, Wis.) was added per well. After 2 hr at 37° C., absorbance at 490 nm was determined on the M5 plate reader (Molecular Devices, Sunnyvale, Calif.).
Viability was determined by MTS assay.

[7] = system: A375 melanoma cells; test: Anchorage-dependent growth inhibition (CellTiterGlo/ATP, 48 hr); type: cell-based, human
[8] = system: rat hepatocytes; test: Primary hepatocyte toxicity (AK release, ATP, 48 hr); type: cell-based; details: for AK release (% Cell Survival) Hepatocytes Rat / ATP (% Cell Survival) Hepatocytes Rat: 48 hr
Procedure: Cryopreserved rat hepatocytes were obtained from CellzDirect (Austin, Tex.) and plated on collagen coated 96-well plates according to manufacturer's instructions. Drug was added 4 hr after plating (final DMSO concentration 0.5%).
as §1

[9] = system: human A375 melanoma xenografts
[10] = system: A375 cells; test: Anchorage-independent growth inhibition (MTS, 7 days); type: cell-based, human
[11] = system: HT29 colon cells; test: Anchorage-dependent growth inhibition (CellTiterGlo/ATP, 48 hr)
Procedure: as §2

[12] = oral, column 1, no head (b1249 order: 50 mg/kg QD)
[13] = oral, column 2, no head (b1249 order: 25 mg/kg BID)
[14] = oral, column 3, no head (b1249 order: second 50 mg/kg QD)
[15] = oral, column 4, no head (b1249 order: 12.5 mg/kg BID)
[16] = 50 mg/kg, oral, column 1, no head (b1249 order: 50 mg/kg QD)
[17] = 50 mg/kg, oral, column 3, no head (b1249 order: second 50 mg/kg QD)
[18] = Group 3: Compound A 50 mg/kg po qd × 14
[19] = Group 3: Compound A 50 mg/kg po qd × 14, n=9
[20] = Group 4: Compound A 25 mg/kg po bid × 14
[21] = Group 4: Compound A 25 mg/kg po bid × 14, n=9
[22] = Group 5: Compound A 25 mg/kg po qd × 14
[23] = Group 5: Compound A 25 mg/kg po qd × 14, n=9
[24] = Group 6: Compound A 12.5 mg/kg po bid × 14
[25] = Group 6: Compound A 12.5 mg/kg po bid × 14, n=9

## COc1cc(F)c(F)c(Nc2ccc(I)cc2F)c1NS(=O)(=O)C1(C[C@H](O)CO)CC1 [Compound A]
[1]; Compound A 2 mg/kg p.o. once daily Day 0 to 9
  Survival Number (No. Alive/Total): 4/10
[1]; Compound A 2 mg/kg, 2 mg/kg
  Caecum Weight: 0.347 g and 0.170 g and 0.150 g and 0.205 g and 0.377 g and 0.233 g and 0.251 g and 0.322 g
  Tumour Weight: 0.001 g (3×) and 0.000 g and 0.005 g (2×) and 0.122 g and 0.003 g
[1]; Compound A 2 mg/kg
  Average Caecum Weight: 0.296 g
  Average Tumour Weight: 0.033 g
[1]; Compound A 10 mg/kg, 10 mg/kg
  Caecum Weight: 0.287 g and 0.198 g and 0.258 g and 0.111 g and 0.263 g and 0.237 g and 0.234 g and 0.289 g and 0.320 g and 0.251 g
  Tumour Weight: 0.000 g (3×) and 0.257 g and 0.008 g and 0.422 g and 0.001 g and 0.014 g and 0.004 g and 0.100 g
[1]; Compound A 10 mg/kg
  Average Caecum Weight: 0.244 g
  Average Tumour Weight: 0.078 g
[1]; Compound A 50 mg/kg, 50 mg/kg
  Caecum Weight: 0.230 g and 0.254 g and 0.238 g and 0.201 g and 0.337 g and 0.169 g and 0.328 g and 0.217 g and 0.312 g and 0.463 g
  Tumour Weight: 0.002 g (2×) and 0.000 g and 0.004 g and 0.166 g and 0.655 g and 0.001 g (3×) and 0.026 g
[1]; Compound A 50 mg/kg
  Average Caecum Weight: 0.290 g
  Average Tumour Weight: 0.122 g
[2]; Homo sapiens, A-431, 48 h, read-out: Anchorage-Dependent GI50 (nM ± sd)
  GI50: > 10000 nM
[3]; Compound A 1.1 (μM), 48 hr
  AK release (% Cell Survival) Hepatocytes Human: 92%
  ATP (% Cell Survival) Hepatocytes Human: 108%
[3]; Compound A 3.3 (μM), 48 hr
  AK release (% Cell Survival) Hepatocytes Human: 102%
  ATP (% Cell Survival) Hepatocytes Human: 104%
[3]; Compound A 10.0 (μM), 48 hr
  AK release (% Cell Survival) Hepatocytes Human: 112%
  ATP (% Cell Survival) Hepatocytes Human: 107%
[3]; Compound A 30.0 (μM), 48 hr
  AK release (% Cell Survival) Hepatocytes Human: 109%
  ATP (% Cell Survival) Hepatocytes Human: 81%
[4]; Homo sapiens, COLO 205, 48 h, read-out: Anchorage-Dependent GI50 (nM ± sd)
  GI50: 74 ± 45 nM
[5]; [12]
  Cmin: 60 ng/mL
  Cmin Free Fraction: 0.117 ng/mL
[5]; [13]
  Cmin: 1240 ng/mL
  Cmin Free Fraction: 2.48 ng/mL
[5]; [14]
  Cmin: 30 ng/mL
  Cmin Free Fraction: 0.059 ng/mL
[5]; [15]
  Cmin: 490 ng/mL
  Cmin Free Fraction: 0.986 ng/mL
[5]; 12.5 mg/kg
  AUC: 78000 ng·h/mL
  Cmax: 7800 ng/mL
[5]; 25 mg/kg
  AUC: 117000 ng·h/mL
  Cmax: 10200 ng/mL
[5]; [16]
  AUC: 132000 ng·h/mL
  Cmax: 23800 ng/mL
[5]; [17]
  AUC: 66500 ng·h/mL
  Cmax: 11900 ng/mL
[6]; Homo sapiens, COLO 205, 168 h, Colo205 Colon, BRAF V600E, 0.15% agarose, read-out: Anchorage-Independent GI50 (nM ± sd)
  GI50: 33 ± 16 nM
[7]; Homo sapiens, A-375, A375 Melanoma, BRAF V600E, 48 hr, CellTiterGlo, read-out: Anchorage-Dependent GI50 (nM ± sd)
  GI50: 67 ± 12 nM
[8]; Compound A 1.1 (μM)
  AK release (% Cell Survival) Hepatocytes Rat: 96%
  ATP (% Cell Survival) Hepatocytes Rat: 114%
[8]; Compound A 3.3 (μM)
  AK release (% Cell Survival) Hepatocytes Rat: 97%
  ATP (% Cell Survival) Hepatocytes Rat: 87%
[8]; Compound A 10.0 (μM)
  AK release (% Cell Survival) Hepatocytes Rat: 93%
  ATP (% Cell Survival) Hepatocytes Rat: 72%
[8]; Compound A 30.0 (μM)
  AK release (% Cell Survival) Hepatocytes Rat: 91%
  ATP (% Cell Survival) Hepatocytes Rat: 57%
[9]; [18]
  % TGD: 21%
  Median TTE: 27.5 days
  T − C: 4.7 days
[9]; [19]
  Regressions CR: 0
  Regressions PR: 1
  Regressions TFS: 0
[9]; [20]
  % TGD: 163%
  MTV (n) Day 60: 0 (4)
  Median TTE: 59.9 days
  T − C: 37.1 days
[9]; [21]
  Regressions CR: 5
  Regressions PR: 4
  Regressions TFS: 4
[9]; [22]
  % TGD: 12%
  Median TTE: 25.6 days
  T − C: 2.8 days
[9]; [23]
  Regressions CR: 0
  Regressions PR: 0
  Regressions TFS: 0
[9]; [24]
  % TGD: 21%
  Median TTE: 27.5 days
  T − C: 4.7 days
[9]; [25]
  Regressions CR: 0
  Regressions PR: 1
  Regressions TFS: 0
[9]; mouse, in vivo, po, 25 mg/kg
  Mean BW Nadir: −0.6% Day 15
[10]; Homo sapiens, A-375, 168 h, A375 Melanoma, BRAF V600E, 0.15% agarose, read-out: Anchorage-Independent GI50 (nM ± sd)
  GI50: 68 ± 34 nM
[11]; Homo sapiens, HT-29, 48 h, read-out: Anchorage-Dependent GI50 (nM ± sd)
  GI50: 70 ± 12 nM

## COc1cc(F)c(F)c(Nc2ccc(I)cc2F)c1NS(=O)(=O)C1(C[C@H](O)CO)CC1
[1]; 10 mg/kg p.o.
  HT-29 tumor and caecum weight, trend: reduction
[1]; 2, 10 and 50 mg/kg p.o.
  average caecum and tumor weights vs Vehicle Control: no significant difference
[2]; read-out: Mean GI50, A431, 48 hr, ATP content, mean of at least three experiments
  GI50: 86 nM
[3]; freshly plated primary human hepatocytes, 30 μM, 48 hr
  survival: 81%
[3]; primary normal human hepatocytes
  cytotoxicity: little cytotoxicity
[4]; Colo205, separate study, 48 hr, ATP content
  GI50: 27 nM
[4]; read-out: Mean GI50, Colo205, 48 hr, ATP content, mean of at least three experiments
  GI50: 89 nM
[5]; mouse efficacy model, typical range
  half-life: 2 to 3 h
[6]; Colo205, anchorage independent, read-out: Mean GI50
  GI50: 40 nM
[6]; human colorectal carcinoma Colo205 cells, read-out: GI50, anchorage independent growth (FIG. 12A)
  GI50: 11 nM
[7]; A375, 48 hr, ATP content, mean of at least three experiments, read-out: Mean GI50
  GI50: 71 nM
[7]; A375, separate study, 48 hr, ATP content, read-out: GI50
  GI50: 56 nM
[7]; A375 cells, 1 uM, 48 hr
  ATP, Cell viability, % Control: 27%
[8]; rat hepatocytes
  cytotoxicity: little cytotoxicity
[9]; Group 3, 50 mg/kg po qd×14
  Median TTE: 27.5 days
  PR: A single animal
  TGD: 21%
[9]; Group 4, 25 mg/kg po bid×14
  CR: 5/9
  Median TTE: 59.9 days
  PR: 4/9
  TFS: 4/9
[9]; Group 4, 25 mg/kg po bid×14, maximum possible
  TGD: 163%
[9]; Group 5, 25 mg/kg po qd×14
  Median TTE: 25.6 days
  tumor regressions: no tumor regressions
[9]; Group 5, 25 mg/kg po qd×14, non-significant
  TGD: 12%
[9]; Group 6, 12.5 mg/kg po bid×14
  Median TTE: 27.5 days
  PR: a single PR response
  TGD: 21%
[10]; A375, anchorage independent, read-out: Mean GI50
  GI50: 84 nM
[10]; A375 cells, read-out: GI50, anchorage independent growth (FIG. 12B)
  GI50: 22 nM
[11]; read-out: Mean GI50, HT29, 48 hr, ATP content, mean of at least three experiments
  GI50: 70 nM
